Where two headings read alike, the source gives them in different places.
Target: T1, mouse GnRH receptor (Mus musculus, UniProt Q01776)
T1 construct: expressed in transfected cells; host or cells: 293 cells
T1 sequence (Q01776 1-327): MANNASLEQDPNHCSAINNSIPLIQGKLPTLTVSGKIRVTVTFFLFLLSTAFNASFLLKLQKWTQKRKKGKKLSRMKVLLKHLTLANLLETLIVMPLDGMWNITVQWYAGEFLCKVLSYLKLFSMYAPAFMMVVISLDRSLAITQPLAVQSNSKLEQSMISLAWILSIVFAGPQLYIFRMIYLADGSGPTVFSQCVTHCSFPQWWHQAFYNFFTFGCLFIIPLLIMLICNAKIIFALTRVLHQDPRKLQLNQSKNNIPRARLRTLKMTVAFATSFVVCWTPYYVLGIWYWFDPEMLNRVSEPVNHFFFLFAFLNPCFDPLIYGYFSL
Assay: Radioligand binding, 125I-GnRH-A, 293 cells expressing mouse GnRH receptors
Details: for inhibition at 10 µM: read-out: % Inhib. @ 10 uM mGnRH; for remaining activity at 10 µM: 1 h, substrate remaining, 10 uM compound, closer to zero = closer to 100% inhibition, read-out: S%R 10 uM mGnRHR
Outline: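 Bound label captured on 0.1% polyethyleneimine-treated GF/C filters, washed three times with PBS, counted. IC50 derived; identical set-up for every species.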

| SMILES | inhibition at 10 µM (10 uM) | remaining activity at 10 µM | also measured |
| --- | --- | --- | --- |
| Cc1cc2c(cc1Cc1ccc(C(=O)N(CCN(C)C)Cc3cccc4ccccc34)o1)C(C)(C)CCC2(C)C [drawing 1489] | 103% | – | – |
| COc1cc(CCNC(=O)c2ccc(Cc3cc4c(cc3C)C(C)(C)CCC4(C)C)o2)cc(OC)c1O [Compound 506] | – | 3% | – |
| CCN(CC)C(=O)C1CCCN(C(=O)c2ccc(Cc3cc4c(cc3C)C(C)(C)CCC4(C)C)o2)C1 (stereo not shown) | 21% | – | – |
| Cc1cc2c(cc1Cc1ccc(C(=O)NC3CCCC(Nc4ccnc(NCC5CCCO5)n4)C3)o1)C(C)(C)CCC2(C)C (stereo not shown) [Compound 473] | – | -14% | – |
| Cc1cc2c(cc1Cc1ccc(C(=O)N3CCC4(CC3)C(=O)NCN4c3ccccc3)o1)C(C)(C)CCC2(C)C [drawing 1511] | 72% | – | – |
| CCN(CC)CCCCNC(=O)c1ccc(Cc2cc3c(cc2C)C(C)(C)CCC3(C)C)o1 | 101% | – | – |
| Cc1cc2c(cc1Cc1ccc(C(=O)N3CCN(C4CCCCC4)CC3)o1)C(C)(C)CCC2(C)C [Compound 701] | – | -1% | – |
| Cc1cc2c(cc1Cc1ccc(C(=O)NC(CO)CC(C)C)o1)C(C)(C)CCC2(C)C (stereo not shown) [drawing 1320] | 98% | – | – |
| Cc1cc2c(cc1Cc1ccc(C(=O)N3CCC(NC(=O)OC(C)(C)C)CC3)o1)C(C)(C)CCC2(C)C | 67% | – | – |
| Cc1cc2c(cc1Cc1ccc(C(=O)NCCc3c[nH]c4ccccc34)o1)C(C)(C)CCC2(C)C [Compound 470] | – | 6% | – |
| COc1ccc(C(NC(=O)c2ccc(Cc3cc4c(cc3C)C(C)(C)CCC4(C)C)o2)C2CC2)cc1 (stereo not shown) [drawing 1435] | 83% | – | – |
| Cc1cc2c(cc1Cc1ccc(C(=O)NCc3ccccc3C(F)(F)F)o1)C(C)(C)CCC2(C)C [Compound 516] | – | 21% | – |
| Cc1cc2c(cc1Cc1ccc(C(=O)N(CCC#N)Cc3cccnc3)o1)C(C)(C)CCC2(C)C [Compound 541] | – | 9% | – |
| Cc1cc2c(cc1Cc1ccc(C(=O)N3CC=CCC3)o1)C(C)(C)CCC2(C)C [Compound 543] | – | 31% | – |
| Cc1cc2c(cc1Cc1ccc(C(=O)NC(C)CO)o1)C(C)(C)CCC2(C)C (stereo not shown) [Compound 685] | – | 19% | – |
| CCN(CC)CCN(C)C(=O)c1ccc(Cc2cc3c(cc2C)C(C)(C)CCC3(C)C)o1 [Compound 532] | – | 12% | – |
| Cc1cc2c(cc1Cc1ccc(C(=O)N3CCN(CC(=O)N4CCCC4)CC3)o1)C(C)(C)CCC2(C)C [drawing 1432] | 79% | – | – |
| Cc1cc2c(cc1Cc1ccc(C(=O)N(C)CC3OCCO3)o1)C(C)(C)CCC2(C)C [Compound 576] | – | 15% | – |
| Cc1cc2c(cc1Cc1ccc(C(=O)N(Cc3ccco3)C3CCN(Cc4ccccc4)C3)o1)C(C)(C)CCC2(C)C (stereo not shown) [drawing 1559] | 94% | – | – |
| CCC(C)CN(CCO)C(=O)c1ccc(Cc2cc3c(cc2C)C(C)(C)CCC3(C)C)o1 (stereo not shown) | 101% | – | – |
| Cc1cc2c(cc1Cc1ccc(C(=O)N3CCCCC3C(=O)NC(c3ccccc3)c3ccccc3)o1)C(C)(C)CCC2(C)C (stereo not shown) [Compound 586] | – | 57% | – |
| C=C(C)CNC(=O)c1ccc(Cc2cc3c(cc2C)C(C)(C)CCC3(C)C)o1 [drawing 1573] | 93% | – | – |
| Cc1cc2c(cc1Cc1ccc(C(=O)NCC(C)(C)CN(C)C)o1)C(C)(C)CCC2(C)C [drawing 1507] | 98% | – | – |

| SMILES | inhibition at 10 µM (10 uM) | remaining activity at 10 µM | also measured |
| --- | --- | --- | --- |
| Cc1cc2c(cc1Cc1ccc(C(=O)N3CCC(CCCC4CCN(CCO)CC4)CC3)o1)C(C)(C)CCC2(C)C [Compound 600] | – | -4% | – |
| Cc1cc2c(cc1Cc1ccc(C(=O)N3CCN(C/C=C/c4ccccc4)CC3)o1)C(C)(C)CCC2(C)C | 86% | – | – |
| Cc1cc2c(cc1Cc1ccc(C(=O)N(Cc3ccncc3)Cc3ccc4c(c3)OCO4)o1)C(C)(C)CCC2(C)C | 91% | – | – |
| COc1cc2c(cc1OC)C(c1ccccc1)N(C(=O)c1ccc(Cc3cc4c(cc3C)C(C)(C)CCC4(C)C)o1)CC2 (stereo not shown) | 29% | – | – |
| Cc1cc2c(cc1Cc1ccc(C(=O)N3CCN(C(=O)OC(C)(C)C)CC3)o1)C(C)(C)CCC2(C)C | 90% | – | – |
| Cc1cc2c(cc1Cc1ccc(C(=O)NCCc3ccc(Oc4ccccc4)cc3)o1)C(C)(C)CCC2(C)C [Compound 622] | – | 43% | – |
| COc1cc(CNC(=O)c2ccc(Cc3cc4c(cc3C)C(C)(C)CCC4(C)C)o2)cc(OC)c1OC [Compound 502] | – | -2% | – |
| Cc1cc2c(cc1Cc1ccc(C(=O)NCCc3ccc(S(N)(=O)=O)cc3)o1)C(C)(C)CCC2(C)C [Compound 461] | – | 53% | – |
| Cc1cc2c(cc1Cc1ccc(C(=O)N(C)[C@@H](C)Cc3ccccc3)o1)C(C)(C)CCC2(C)C | 59% | – | – |
| Cc1cc2c(cc1Cc1ccc(C(=O)N3Cc4ccccc4CC3CO)o1)C(C)(C)CCC2(C)C (stereo not shown) | 61% | – | – |
| Cc1cc2c(cc1Cc1ccc(C(=O)NCCc3c[nH]c4ccc(O)cc34)o1)C(C)(C)CCC2(C)C [Compound 678] | – | 17% | – |
| Cc1cc2c(cc1Cc1ccc(C(=O)NCCCCCCN(C)C)o1)C(C)(C)CCC2(C)C [Compound 627] | – | -6% | – |
| Cc1cc2c(cc1Cc1ccc(C(=O)NCCNc3nccc(NCC4CCCO4)n3)o1)C(C)(C)CCC2(C)C (stereo not shown) [Compound 514] | – | 2% | – |
| Cc1cc2c(cc1Cc1ccc(C(=O)N(C)CC3OCCO3)o1)C(C)(C)CCC2(C)C [drawing 1500] | 86% | – | – |
| Cc1cc2c(cc1Cc1ccc(C(=O)N(Cc3ccco3)C3CC(=O)N(Cc4ccccc4)C3=O)o1)C(C)(C)CCC2(C)C (stereo not shown) | 20% | – | – |
| CCCCN(C(=O)c1ccc(Cc2cc3c(cc2C)C(C)(C)CCC3(C)C)o1)C(C)c1ccccc1 (stereo not shown) [Compound 695] | – | 35% | – |
| Cc1cc2c(cc1Cc1ccc(C(=O)N(CCCO)Cc3ccc(Cl)cc3Cl)o1)C(C)(C)CCC2(C)C | 94% | – | – |
| CCOC(=O)CC1C(=O)NCCN1C(=O)c1ccc(Cc2cc3c(cc2C)C(C)(C)CCC3(C)C)o1 (stereo not shown) | 98% | – | – |
| Cc1cc2c(cc1Cc1ccc(C(=O)N3CCC(O)(O)CC3)o1)C(C)(C)CCC2(C)C | – | – | inhibition at 10 µM: 22% |
| CCC(CC)NC(=O)c1ccc(Cc2cc3c(cc2C)C(C)(C)CCC3(C)C)o1 [drawing 1546] | 76% | – | – |
| Cc1cc2c(cc1Cc1ccc(C(=O)N3CCC(Cc4ccccc4)CC3)o1)C(C)(C)CCC2(C)C [Compound 585] | – | 52% | – |
| Cc1cc2c(cc1Cc1ccc(C(=O)NCCN3CCCCC3)o1)C(C)(C)CCC2(C)C [Compound 488] | – | -3% | – |
| Cc1cc2c(cc1Cc1ccc(C(=O)N(Cc3ccccc3Cl)C3CCN(Cc4ccccc4)CC3)o1)C(C)(C)CCC2(C)C | 43% | – | – |

| SMILES | inhibition at 10 µM (10 uM) | remaining activity at 10 µM | also measured |
| --- | --- | --- | --- |
| Cc1cc2c(cc1Cc1ccc(C(=O)N3C[C@H]4CCCC[C@H]4CC3C(=O)NC(C)(C)C)o1)C(C)(C)CCC2(C)C (stereo partly shown) [Compound 591] | – | 48% | – |
| CCc1ccc(CN(CCCO)C(=O)c2ccc(Cc3cc4c(cc3C)C(C)(C)CCC4(C)C)o2)cc1 | 88% | – | – |
| CCN(CCO)C(=O)c1ccc(Cc2cc3c(cc2C)C(C)(C)CCC3(C)C)o1 [Compound 539] | – | 19% | – |
| Cc1cc2c(cc1Cc1ccc(C(=O)N3CCCC3C)o1)C(C)(C)CCC2(C)C (stereo not shown) [Compound 659] | – | -2% | – |
| Cc1cc2c(cc1Cc1ccc(C(=O)N(Cc3cccnc3)Cc3cccc(C(F)(F)F)c3)o1)C(C)(C)CCC2(C)C [Compound 551] | – | 21% | – |
| Cc1cc2c(cc1Cc1ccc(C(=O)N(CCCc3ccccc3)Cc3ccc(Oc4ccccc4)cc3)o1)C(C)(C)CCC2(C)C | 17% | – | – |
| Cc1cc2c(cc1Cc1ccc(C(=O)NCc3cccc(CNC(=O)C(Cc4ccccc4)c4ccccc4)c3)o1)C(C)(C)CCC2(C)C (stereo not shown) [Compound 613] | – | 53% | – |
| Cc1cc2c(cc1Cc1ccc(C(=O)N3CCC(C)CC3)o1)C(C)(C)CCC2(C)C [drawing 1493] | 82% | – | – |
| CCCNC(=O)c1ccc(Cc2cc3c(cc2C)C(C)(C)CCC3(C)C)o1 [drawing 1274] | 93% | – | – |
| CCCN(CCC#N)C(=O)c1ccc(Cc2cc3c(cc2C)C(C)(C)CCC3(C)C)o1 | 94% | – | – |
| Cc1cc2c(cc1Cc1ccc(C(=O)N3CCN(C4CCCCC4)CC3)o1)C(C)(C)CCC2(C)C [drawing 1265] | 102% | – | – |
| COc1cccc(N2CCN(C(=O)c3ccc(Cc4cc5c(cc4C)C(C)(C)CCC5(C)C)o3)CC2C)c1 (stereo not shown) [Compound 663] | – | 25% | – |
| CCN(C(=O)c1ccc(Cc2cc3c(cc2C)C(C)(C)CCC3(C)C)o1)C1CCCCC1 [Compound 664] | – | 1% | – |
| Cc1cc2c(cc1Cc1ccc(C(=O)N(Cc3cccnc3)CC3CC=CCC3)o1)C(C)(C)CCC2(C)C (stereo not shown) [drawing 1318] | 94% | – | – |
| CCCCN(CCC#N)C(=O)c1ccc(Cc2cc3c(cc2C)C(C)(C)CCC3(C)C)o1 | 87% | – | – |
| Cc1cc2c(cc1Cc1ccc(C(=O)N3CCCC3C(=O)NC(c3ccccc3)c3ccccc3)o1)C(C)(C)CCC2(C)C (stereo not shown) [Compound 621] | – | 43% | – |
| Cc1cc2c(cc1Cc1ccc(C(=O)N3CCCCC3CCO)o1)C(C)(C)CCC2(C)C (stereo not shown) | 100% | – | – |
| Cc1cc2c(cc1Cc1ccc(C(=O)N(C)Cc3cccc4ccccc34)o1)C(C)(C)CCC2(C)C | 51% | – | – |
| Cc1cc2c(cc1Cc1ccc(C(=O)N(CCN3CCCC3)Cc3ccccc3)o1)C(C)(C)CCC2(C)C [Compound 540] | – | 0% | – |
| Cc1cc2c(cc1Cc1ccc(C(=O)NC3(CO)CCCC3)o1)C(C)(C)CCC2(C)C [drawing 1464] | 98% | – | – |
| COc1ccc(OC)c(CCNC(=O)c2ccc(Cc3cc4c(cc3C)C(C)(C)CCC4(C)C)o2)c1 [Compound 508] | – | 7% | – |

Reference: patent publication US7101878B1 (Agouron Pharmaceuticals, Inc., priority 1998, dated 2006)
